In general, IC50 refers to the concentration that inhibits the measured activity by half. Low readings indicate inhibition by little substance, high ones a need for much substance. In general, pKa refers to the negative logarithm of the acid dissociation constant.

Experimental findings from publication PMC7565988, “Insight into the Anticancer Activity of Copper(II) 5-Methylenetrimethylammonium-Thiosemicarbazonates and Their Interaction with Organic Cation Transporters” (Biomolecules, 2020) are described below.

For one data set, the target named is T1, OCT2 (Homo sapiens, UniProt O15244).
T1 construct: expressed in transfected cells
T1 sequence (O15244 1-555): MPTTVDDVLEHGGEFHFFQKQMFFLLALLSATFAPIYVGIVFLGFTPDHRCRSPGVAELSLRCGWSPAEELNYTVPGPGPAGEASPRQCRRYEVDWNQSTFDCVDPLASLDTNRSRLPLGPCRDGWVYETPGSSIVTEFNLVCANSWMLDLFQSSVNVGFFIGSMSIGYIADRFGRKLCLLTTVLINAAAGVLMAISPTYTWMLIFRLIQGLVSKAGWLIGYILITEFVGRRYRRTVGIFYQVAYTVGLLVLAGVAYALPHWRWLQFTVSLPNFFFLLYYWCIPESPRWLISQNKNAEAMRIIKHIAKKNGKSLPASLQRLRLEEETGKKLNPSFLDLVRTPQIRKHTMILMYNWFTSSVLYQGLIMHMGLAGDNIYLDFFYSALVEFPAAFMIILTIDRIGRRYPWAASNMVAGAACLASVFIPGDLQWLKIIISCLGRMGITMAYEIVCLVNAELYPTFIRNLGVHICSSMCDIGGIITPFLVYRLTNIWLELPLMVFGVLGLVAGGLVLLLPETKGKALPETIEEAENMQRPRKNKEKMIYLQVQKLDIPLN
As to the kind of experiment: [3H]-MPP+ uptake inhibition assay in HEK-293 cells. Conditions: for IC50: HEK cells stably expressing human OCT2, 10 min uptake; for interaction with OCT2: [3H]-MPP+ uptake inhibition in HEK OCT2 cells. The format is cell-based. The protocol: (§1) HEK–293 cells (LGC Standards GmbH, Germany) stably expressing human isoforms of wild type organic cation transporters 1–3 (OCT1–3) were cultured in Dulbecco’s modified Eagle’s medium (DMEM; Sigma-Aldrich) with high glucose (4.5 g/L) and L-glutamine (584 mg/L) supplemented with 10% foetal calf serum (FCS; Biowest) and penicillin/streptomycin mixture (50 mg/L; Sigma/Aldrich) at 37 °C in a humidified atmosphere (5% CO2). The selection reagent was Geneticin (150 U/mL; Merck, Germany) for all three cell lines. Cells were seeded onto poly-D-lysine (0.05 mg/mL; Sigma-Aldrich) precoated clear bottom Corning 96 well white assay plate (Sigma-Aldrich) at the density of 4 × 10^4 cells per well 24 h prior to the experiment.
(§2) The assay was performed as previously described with slight modification. Briefly, on the day of the experiment, cells were washed once with 100 µL Krebs-HEPES buffer (KHB; 10 mM HEPES, 120 mM NaCl, 3 mM KCl, 2 mM CaCl2·2H2O, 2 mM MgCl2·6H2O, 5 mM D-(+)- glucose, pH 7.3) at room temperature. Cells were preincubated for 10 min in 50 µL of RT KHB containing increasing concentrations of tested compounds previously dissolved in dimethyl sulfoxide (DMSO; final concentration in working solution was 1%). After that, the preincubation solution was quickly removed and replaced with 50 µL of uptake solution containing the aforementioned components with the addition of 50 nM [^3H]-1-methyl-4-phenylpyridinium ([^3H]-MPP^+; 60 Ci/mmol; American Radiolabeled Chemicals, Saint Louis, MO, USA). After the 10 min uptake at RT, the transport was stopped by washing cells with 100 µL of ice-cold KHB and adding 200 µL of Ultima GoldTM XR scintillation cocktail (PerkinElmer, MA, USA). The plates were shaken, placed into Wallac 1450 MicroBeta TriLux Liquid Scintillation Counter and Lumi (GMI, Ramsey, MN, USA) and the released radioactivity was measured for 3 min. Nonspecific [^3H]-MPP^+ uptake was measured in the presence of 100 µM decynium-22 and the data were plotted as a percentage of uptake in the presence of 1% DMSO from which the value of the nonspecific uptake was subtracted. Nonlinear regression analysis (GraphPad Prism version 5.0, GraphPad Software, San Diego, CA, USA) was used for calculation of IC50 values.

The target of a further data set is T2, OCT1 (Homo sapiens, UniProt O15245).
T2 construct: expressed in transfected cells
T2 sequence (O15245 1-554): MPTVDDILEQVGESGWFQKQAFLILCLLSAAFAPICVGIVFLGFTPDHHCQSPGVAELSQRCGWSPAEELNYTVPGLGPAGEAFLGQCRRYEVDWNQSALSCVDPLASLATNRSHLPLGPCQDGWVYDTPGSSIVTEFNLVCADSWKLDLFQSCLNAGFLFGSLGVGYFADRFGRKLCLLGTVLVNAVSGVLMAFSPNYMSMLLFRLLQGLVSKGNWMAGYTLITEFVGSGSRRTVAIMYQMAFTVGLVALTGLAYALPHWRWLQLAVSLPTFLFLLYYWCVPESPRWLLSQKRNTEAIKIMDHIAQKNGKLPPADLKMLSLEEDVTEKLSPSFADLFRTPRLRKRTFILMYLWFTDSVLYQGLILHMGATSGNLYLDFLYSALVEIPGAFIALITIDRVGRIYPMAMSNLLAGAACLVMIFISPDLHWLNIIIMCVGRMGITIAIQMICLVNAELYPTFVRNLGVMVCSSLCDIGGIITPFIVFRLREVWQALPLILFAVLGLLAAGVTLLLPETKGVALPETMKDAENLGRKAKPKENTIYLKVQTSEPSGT
Briefly: [3H]-MPP+ uptake inhibition assay in HEK-293 cells. The format is cell-based. The note with it: 10 min uptake; for IC50: HEK cells stably expressing human OCT1. On the procedure: as §1, §2

Data set [1] in a line: Proton dissociation constants (pKa) of proligands by UV/Vis spectrophotometric titration. The class given is physicochemical. Conditions: for % HL at pH 7.4: fraction of proligand in neutral zwitterionic HL form at pH 7.4, computed with pKa; for pKa: proligand, phenolic OH, I = 0.1 M (KCl), t = 25 °C, water, read-out: pKa (H2L+). The protocol:
An Agilent Carry 8454 diode array spectrophotometer was used to record the UV/Vis spectra in the interval 200–800 nm. The path length was 1 cm. Proton dissociation constants (pKa) of the TSC ligands, the overall stability constants of the copper(II) monoligand complexes (logβ) and the individual spectra of the species in the various protonation states and stoichiometry were calculated by the computer program PSEQUAD [44]. Spectrophotometric titrations were performed on samples containing the proligands at 50 μM concentration by a KOH solution in the presence of 0.1 M KCl at 25.0 ± 0.1 °C in the pH range from 2 to 11.5, and the metal-to-ligand ratio was 1:0, 1:1 and 1:2. An Orion 710A pH-meter equipped with a Metrohm combined electrode (type 6.0234.100) and a Metrohm 665 Dosimat burette were used for the titrations. […] The average water ionisation constant (pKw) is 13.76 ± 0.05 in water. Argon was also passed over the solutions during the titrations. Measurements were also carried out in the range of ca. 1.0–2.0 by preparing individual samples in which KCl was partially or completely replaced by HCl and pH values (between 1 and 2) were calculated from the strong acid content.

With `CCNC(=S)N/N=C/c1cc(C[N+](C)(C)C)ccc1O` [[H2L^Et]Cl], the IC50 came to 236 ± 97.1 µM at OCT2 and 169 ± 26.2 µM against OCT1. For the same compound, in data set [1], the “% HL at pH 7.4” value was 55%. Moreover, in data set [1], the pKa was determined as 7.31 ± 0.01.

Regarding `C[N+](C)(C)Cc1ccc(O)c(/C=N/NC(N)=S)c1` [[H2L^H]Cl], at OCT2, the 50% inhibitory concentration (IC50) is over 4000 µM and the “interaction with OCT2” value is listed as “no interaction”. Besides, the half-maximal inhibitory concentration (IC50) against OCT1 worked out at 740 ± 195 µM. At OCT1 (HEK-293 cells stably expressing human OCT1, pH 7.3, probe [3H]-MPP+ (50 nM)), the midpoint of inhibition, the IC50 at 10 min, lay at 740 µM. Moreover, in data set [1], the “% HL at pH 7.4” value came out at 47% and the pKa amounted to 7.46 ± 0.01.

For the compound `CNC(=S)N/N=C/c1cc(C[N+](C)(C)C)ccc1O` [[H2L^Me]Cl], on OCT2, the half-inhibitory concentration (IC50) is over 4000 µM and the “interaction with OCT2” value is “no interaction”. The compound also displayed a concentration for half-maximal inhibition (IC50) against OCT1 of 391 ± 40 µM. In addition, in data set [1], the “% HL at pH 7.4” value stood at 42% and the pKa was found to be 7.54 ± 0.01.

For `C[N+](C)(C)Cc1ccc(O)c(/C=N/NC(=S)Nc2ccccc2)c1` [[H2L^Ph]Cl], half-maximal inhibition against OCT2 (IC50) was put at 371 ± 123 µM. The IC50 on OCT1 was 119 ± 50 µM. Further, in data set [1], the “% HL at pH 7.4” value came out at 70% and the pKa was 7.03 ± 0.01.
